Results: ChEMBL document CHEMBL3774317, “Design and synthesis of novel tamoxifen analogues that avoid CYP2D6 metabolism” (Eur J Med Chem, 2016)

Experiments:
Format in all cases: functional
[1] = test system: A498; experiment: Cytotoxicity against human A498 cells assessed as cell growth at 50 nM after 48 hrs by SRB assay; conditions: A498, 48 h, read-out: Activity
[2] = Cytotoxicity against human BT549 cells assessed as cell growth at 0.5 uM after 48 hrs by SRB assay; conditions: BT-549, 48 h, read-out: Activity
[3] = test system: NCI-H23; experiment: Cytotoxicity against human NCI-H23 cells assessed as cell growth at 5 uM after 48 hrs by SRB assay; conditions: NCI-H23, 48 h, read-out: Activity
[4] = test system: MCF7; experiment: Cytotoxicity against human MCF7 cells assessed as cell growth at 50 uM after 48 hrs by SRB assay; conditions: MCF7, 48 h, read-out: Activity
[5] = test system: EKVX; experiment: Cytotoxicity against human EKVX cells assessed as cell growth at 50 uM after 48 hrs by SRB assay; conditions: read-out: Activity
[6] = test system: A498; experiment: Cytotoxicity against human A498 cells assessed as cell growth at 5 nM after 48 hrs by SRB assay; conditions: A498, 48 h, read-out: Activity
[7] = test system: SR; experiment: Cytotoxicity against human SR cells assessed as cell growth at 5 uM after 48 hrs by SRB assay; conditions: read-out: Activity
[8] = test system: M14; experiment: Cytotoxicity against human M14 cells assessed as cell growth at 5 uM after 48 hrs by SRB assay; conditions: M14, 48 h, read-out: Activity
[9] = Cytotoxicity against human RXF393 cells assessed as cell growth at 50 nM after 48 hrs by SRB assay; conditions: RXF 393, 48 h, read-out: Activity
[10] = Cytotoxicity against human OVCAR5 cells assessed as cell growth at 5 uM after 48 hrs by SRB assay; conditions: OVCAR-5, 48 h, read-out: Activity
[11] = Cytotoxicity against human HL-60(TB) cells assessed as cell growth at 50 uM after 48 hrs by SRB assay; conditions: HL-60, 48 h, read-out: Activity
[12] = test system: NCI-H23; experiment: Cytotoxicity against human NCI-H23 cells assessed as cell growth at 50 uM after 48 hrs by SRB assay; conditions: NCI-H23, 48 h, read-out: Activity
[13] = Cytotoxicity against human SNB75 cells assessed as cell growth at 50 uM after 48 hrs by SRB assay; conditions: SNB-75, 48 h, read-out: Activity
[14] = test system: NCI-H322M; experiment: Cytotoxicity against human NCI-H322M cells assessed as cell growth at 0.5 uM after 48 hrs by SRB assay; conditions: read-out: Activity
[15] = test system: SN12C; experiment: Cytotoxicity against human SN12C cells assessed as cell growth at 10^-7 M after 48 hrs by SRB assay; conditions: read-out: Activity
[16] = test system: U-251; experiment: Cytotoxicity against human U251 cells assessed as cell growth at 10^-5 M after 48 hrs by SRB assay; conditions: U-251, 48 h, read-out: Activity
[17] = test system: ACHN; experiment: Cytotoxicity against human ACHN cells assessed as cell growth at 10^-7 M after 48 hrs by SRB assay; conditions: read-out: Activity
[18] = test system: NCI-H226; experiment: Cytotoxicity against human NCI-H226 cells assessed as cell growth at 10^-4 M after 48 hrs by SRB assay; conditions: NCI-H226, 48 h, read-out: Activity
[19] = Cytotoxicity against human HCT116 cells assessed as cell growth at 10^-4 M after 48 hrs by SRB assay; conditions: HCT-116, 48 h, read-out: Activity
[20] = Cytotoxicity against human PC3 cells assessed as cell growth at 10^-7 M after 48 hrs by SRB assay; conditions: PC-3, 48 h, read-out: Activity
[21] = test system: MDA-MB-468; experiment: Cytotoxicity against human MDA-MB-468 cells assessed as cell growth at 10^-5 M after 48 hrs by SRB assay; conditions: MDA-MB-468, 48 h, read-out: Activity
[22] = test system: NCI-H460; experiment: Cytotoxicity against human NCI-H460 cells assessed as cell growth at 10^-6 M after 48 hrs by SRB assay; conditions: NCI-H460, 48 h, read-out: Activity
[23] = Cytotoxicity against human OVCAR5 cells assessed as cell growth at 10^-4 M after 48 hrs by SRB assay; conditions: OVCAR-5, 48 h, read-out: Activity
[24] = Cytotoxicity against human SF295 cells assessed as cell growth at 10^-5 M after 48 hrs by SRB assay; conditions: SF-295, 48 h, read-out: Activity
[25] = Cytotoxicity against human BT549 cells assessed as cell growth at 10^-7 M after 48 hrs by SRB assay; conditions: BT-549, 48 h, read-out: Activity
[26] = Cytotoxicity against human IGROV1 cells assessed as cell growth at 10^-7 M after 48 hrs by SRB assay; conditions: IGROV-1, 48 h, read-out: Activity
[27] = Cytotoxicity against human HOP92 cells assessed as cell growth at 10^-4 M after 48 hrs by SRB assay; conditions: HOP-92, 48 h, read-out: Activity
[28] = Cytotoxicity against human DU145 cells assessed as cell growth at 10^-7 M after 48 hrs by SRB assay; conditions: DU-145, 48 h, read-out: Activity
[29] = Cytotoxicity against human SF539 cells assessed as cell growth at 10^-5 M after 48 hrs by SRB assay; conditions: SF-539, 48 h, read-out: Activity
[30] = Cytotoxicity against human LOXIMVI cells assessed as cell growth at 10^-7 M after 48 hrs by SRB assay; conditions: LOX IMVI, read-out: Activity
[31] = Cytotoxicity against human OVCAR3 cells assessed as cell growth at 10^-7 M after 48 hrs by SRB assay; conditions: OVCAR-3, 48 h, read-out: Activity
[32] = Cytotoxicity against human RXF393 cells assessed as cell growth at 10^-7 M after 48 hrs by SRB assay; conditions: RXF 393, 48 h, read-out: Activity
[33] = Cytotoxicity against human RPMI8226 cells assessed as cell growth at 10^-5 M after 48 hrs by SRB assay; conditions: RPMI-8226, 48 h, read-out: Activity
[34] = Cytotoxicity against human NCI-ADR-RES cells assessed as cell growth at 10^-5 M after 48 hrs by SRB assay; conditions: read-out: Activity
[35] = test system: EKVX; experiment: Cytotoxicity against human EKVX cells assessed as cell growth at 10^-6 M after 48 hrs by SRB assay; conditions: read-out: Activity
[36] = Cytotoxicity against human HCT116 cells assessed as cell growth at 10^-6 M after 48 hrs by SRB assay; conditions: HCT-116, 48 h, read-out: Activity
[37] = test system: NCI-H226; experiment: Cytotoxicity against human NCI-H226 cells assessed as cell growth at 10^-8 M after 48 hrs by SRB assay; conditions: NCI-H226, 48 h, read-out: Activity
[38] = Cytotoxicity against human Caki1 cells assessed as cell growth at 10^-6 M after 48 hrs by SRB assay; conditions: CAKI-1, 48 h, read-out: Activity
[39] = test system: NCI-H522; experiment: Cytotoxicity against human NCI-H522 cells assessed as cell growth at 10^-7 M after 48 hrs by SRB assay; conditions: NCI-H522, 48 h, read-out: Activity
[40] = test system: 786-0; experiment: Cytotoxicity against human 786-0 cells assessed as cell growth at 10^-5 M after 48 hrs by SRB assay; conditions: 786-0, 48 h, read-out: Activity
[41] = Cytotoxicity against human UACC257 cells assessed as cell growth at 10^-7 M after 48 hrs by SRB assay; conditions: UACC-257, 48 h, read-out: Activity

For `CCCCCCCCCC(=O)Oc1ccc(/C(=C(/C)c2ccccc2)c2ccc(OCCN3CCCC3)cc2)cc1`, the growth at 0.05 µM [1] was 53%, the growth at 0.5 µM [2] was 83% and the growth at 5 µM [3] was 80%. It also gave a growth at 50 µM [4] of -79%, a growth at 50 µM [5] of -97% and a growth at 0.005 µM [6] of 61%. The growth at 5 µM [7] was 90%, the growth at 5 µM [8] was 87% and the growth at 0.05 µM [9] was 100%. The growth at 5 µM [10] was 91%, the growth at 50 µM [11] was -70% and the growth at 50 µM [12] was -78%. The growth at 50 µM [13] was -90% and the growth at 0.5 µM [14] was 73%.

`C/C(=C(/c1ccc(O)cc1)c1ccc(OCCN2CCCC2)cc1)c1ccccc1` gave a growth at 0.1 µM [15] of 104%, a growth at 10 µM [16] of -33% and a growth at 0.1 µM [17] of 97%. The growth at 100 µM [18] was -62%, the growth at 100 µM [19] was -98% and the growth at 0.1 µM [20] was 105%. It also gave a growth at 10 µM [21] of -45%, a growth at 1 µM [22] of 102% and a growth at 100 µM [23] of -85%. It also gave a growth at 10 µM [24] of -57%, a growth at 0.1 µM [25] of 100% and a growth at 0.1 µM [26] of 101%. For the same compound, the growth at 100 µM [27] was -88%, the growth at 0.1 µM [28] was 96% and the growth at 10 µM [29] was -67%. The growth at 0.1 µM [30] was 95%, the growth at 0.1 µM [31] was 99% and the growth at 0.1 µM [32] was 105%. It also gave a growth at 10 µM [33] of -19%, a growth at 10 µM [34] of 25% and a growth at 1 µM [35] of 78%. It also gave a growth at 1 µM [36] of 93%, a growth at 0.01 µM [37] of 91% and a growth at 1 µM [38] of 81%. It also gave a growth at 0.1 µM [39] of 94%, a growth at 10 µM [40] of -57% and a growth at 0.1 µM [41] of 102%.
